Tests used:
Assay in all cases: Test of herbicidal activities (greenhouse pot method)
Format in all cases: in vivo
Settings in all cases: single dose 300 g ai./h, treated before/after germination, 15 days later, greenhouse pot
[1] = test system: Setaria viridis
Description: (§1) Garden soil was collected from regions where no pesticide is used and mixed uniformly with mountain soil and organic humus soil at a volume ratio of 1:1:1.
(§2) Multiple flowerpots each having a diameter of 9.5 cm and a depth of 8 cm were filled with the soil mixture to 3/4 volume. After water was added to the soil and the soil was completely wet, seeds of three grass weeds and three broadleaf weeds were inserted into the flowerpots (10-15 seeds for each weed). After seeding, the seeds were covered with fine oil mixed with sand and having a thickness of 1-3 cm. After the soil absorbed enough water and became saturated, excess water at the bottom of the flowerpot was drained, and the seeds were placed in a greenhouse for growth.
(§3) The weeds were watered every day so as to keep relative humidity of the soil at approximately 80%, growing temperature of 15-30° C., and air humidity above 50%. As the grass weeds grew to a 2-leaf stage and the broadleaf weeds was in a leaf period, spraying operation […] was performed on the stems and leafs. Planting before germination was performed before spraying. Soil processing was performed before the seeds of the weeds emerged.
(§4) Six target weeds comprising three grass weeds: Echinochloa crusgalli, Digiatria sanguinalis, Setaria viridis, along with three broadleaf weeds: Brassica juncea, Amaranthus retroflexus, Chenopodium album were treated before/after germination using a so-called “greenhouse pot” method with a single dose. A treating dose was 300 g ai./h. The process was repeated three times, and a blank control was used.
(§5) A 3WPSHZ-500 type automatic spraying tower with a spraying area of 0.132 m^2, a spray volume of 10 mL, working pressure of 0.2 MPa, and a liquid volume of 40% of maximum was used. After treatment, the weeds were placed in a greenhouse at a temperature of 15-30° C. Reaction symptoms of the weeds were regularly observed, and 15 days later, five reaction levels were determined according to the following inhibition intervals: 90≦A≦100%; 80≦B<90%, 60≦C<80%; 50≦D<60%, E<50%.

[2] = test system: Digiatria sanguinalis
Description: as §1, §2, §3, §4, §5

[3] = test system: Brassica juncea
Description: as §1, §2, §3, §4, §5

[4] = test system: Amaranthus retroflexus
Description: as §1, §2, §3, §4, §5

[5] = test system: Echinochloa crusgalli
Description: as §1, §2, §3, §4, §5

[6] = test system: Chenopodium album
Description: as §1, §2, §3, §4, §5

| Compound | Herbicidal activity Setaria viridis (inhibition level) [1] | Herbicidal activity Digiatria sanguinalis (inhibition level) [2] | Herbicidal activity Brassica juncea (inhibition level) [3] | Herbicidal activity Amaranthus retroflexus (inhibition level) [4] | Herbicidal activity Echinochloa crusgalli (inhibition level) [5] | Herbicidal activity Chenopodium album (inhibition level) [6] | inhibition at 300 g/ha ([1]; Setaria viridis, 360 h, read-out: Herbicidal activity Setaria viridis (inhibition level)) [%] | inhibition at 300 g/ha ([2]; 360 h, read-out: Herbicidal activity Digiatria sanguinalis (inhibition level)) [%] | inhibition at 300 g/ha ([3]; Brassica juncea, 360 h, read-out: Herbicidal activity Brassica juncea (inhibition level)) [%] | inhibition at 300 g/ha ([4]; Amaranthus retroflexus, 360 h, read-out: Herbicidal activity Amaranthus retroflexus (inhibition level)) [%] | inhibition at 300 g/ha ([5]; Echinochloa crus-galli, 360 h, read-out: Herbicidal activity Echinochloa crusgalli (inhibition level)) [%] | inhibition at 300 g/ha ([6]; Chenopodium album, 360 h, read-out: Herbicidal activity Chenopodium album (inhibition level)) [%] |
| --- | --- | --- | --- | --- | --- | --- | --- | --- | --- | --- | --- | --- |
| Cc1nn(-c2cc3nc(SCc4ccccc4)sc3cc2F)c(=O)n1C(F)F [Compound 11] | C (60 ≦ C < 80%) | B (80 ≦ B < 90%) | A (90 ≦ A ≦ 100%) | B (80 ≦ B < 90%) | E (E < 50%) | C (60 ≦ C < 80%) | – | – | – | – | – | – |
| Cc1nn(-c2cc3nc(S(=O)(=O)Cc4ccccc4F)sc3cc2F)c(=O)n1C(F)F [Compound 52] | B (80 ≦ B < 90%) | A (90 ≦ A ≦ 100%) | B (80 ≦ B < 90%) | C (60 ≦ C < 80%) | E (E < 50%) | B (80 ≦ B < 90%) | – | – | – | – | – | – |
| Cc1nn(-c2cc3nc(SCn4cnc5ccccc5c4=O)sc3cc2F)c(=O)n1C(F)F [Compound 74] | A (90 ≦ A ≦ 100%) | B (80 ≦ B < 90%) | B (80 ≦ B < 90%) | B (80 ≦ B < 90%) | A (90 ≦ A ≦ 100%) | C (60 ≦ C < 80%) | – | – | – | – | – | – |
| COc1cccc(CSc2nc3cc(-n4nc(C)n(C(F)F)c4=O)c(F)cc3s2)c1 [Compound 17] | B (80 ≦ B < 90%) | E (E < 50%) | A (90 ≦ A ≦ 100%) | A (90 ≦ A ≦ 100%) | C (60 ≦ C < 80%) | B (80 ≦ B < 90%) | – | – | – | – | – | – |
| CSc1nc2cc(-n3nc(C)n(C(F)F)c3=O)c(F)cc2s1 [Compound 90] | A (90 ≦ A ≦ 100%) | A (90 ≦ A ≦ 100%) | A (90 ≦ A ≦ 100%) | A (90 ≦ A ≦ 100%) | B (80 ≦ B < 90%) | A (90 ≦ A ≦ 100%) | – | – | – | – | – | – |
| Cc1nn(-c2cc3nc(S(=O)(=O)Cc4ccc(F)cc4F)sc3cc2F)c(=O)n1C(F)F [Compound 49] | D (50 ≦ D < 60%) | C (60 ≦ C < 80%) | A (90 ≦ A ≦ 100%) | A (90 ≦ A ≦ 100%) | A (90 ≦ A ≦ 100%) | B (80 ≦ B < 90%) | – | – | – | – | – | – |
| Cc1ccccc1CSc1nc2cc(-n3nc(C)n(C(F)F)c3=O)c(F)cc2s1 [Compound 14] | C (60 ≦ C < 80%) | C (60 ≦ C < 80%) | A (90 ≦ A ≦ 100%) | B (80 ≦ B < 90%) | B (80 ≦ B < 90%) | C (60 ≦ C < 80%) | – | – | – | – | – | – |
| CCCS(=O)(=O)c1nc2cc(-n3nc(C)n(C)c3=O)c(F)cc2s1 [Compound 48, 1-(6-fluoro-2-(propylsulfonyl)benzo[d]thiazol-5-yl)-3,4-dimethyl-1H-1,2,4-triazol-5(4H)-one] | – | – | – | – | – | – | 60 to 80 | 80 to 90 | 80 to 90 | 80 to 90 | 80 to 90 | 50 to 60 |
| C=CCSc1nc2cc(-n3nc(C(F)(F)F)n(C(F)F)c3=O)c(F)cc2s1 [Compound 123] | B (80 ≦ B < 90%) | B (80 ≦ B < 90%) | D (50 ≦ D < 60%) | A (90 ≦ A ≦ 100%) | D (50 ≦ D < 60%) | A (90 ≦ A ≦ 100%) | – | – | – | – | – | – |
| Cc1nn(-c2cc3nc(S(=O)(=O)Cc4ccccc4)sc3cc2F)c(=O)n1C(F)F [Compound 51] | A (90 ≦ A ≦ 100%) | A (90 ≦ A ≦ 100%) | B (80 ≦ B < 90%) | A (90 ≦ A ≦ 100%) | C (60 ≦ C < 80%) | B (80 ≦ B < 90%) | – | – | – | – | – | – |
| CCCCSc1nc2cc(-n3nc(C)n(C(F)F)c3=O)c(Cl)cc2s1 [Compound 97] | C (60 ≦ C < 80%) | C (60 ≦ C < 80%) | B (80 ≦ B < 90%) | B (80 ≦ B < 90%) | B (80 ≦ B < 90%) | B (80 ≦ B < 90%) | – | – | – | – | – | – |
| Cc1nn(-c2cc3nc(SCc4cccc(Br)c4)sc3cc2F)c(=O)n1C(F)F [Compound 21] | E (E < 50%) | B (80 ≦ B < 90%) | B (80 ≦ B < 90%) | A (90 ≦ A ≦ 100%) | C (60 ≦ C < 80%) | B (80 ≦ B < 90%) | – | – | – | – | – | – |
| CCCS(=O)(=O)c1nc2cc(-n3nc(C)n(C(F)F)c3=O)c(Cl)cc2s1 [Compound 72] | C (60 ≦ C < 80%) | B (80 ≦ B < 90%) | B (80 ≦ B < 90%) | A (90 ≦ A ≦ 100%) | A (90 ≦ A ≦ 100%) | B (80 ≦ B < 90%) | – | – | – | – | – | – |
| Cc1ccccc1CS(=O)(=O)c1nc2cc(-n3nc(C)n(C(F)F)c3=O)c(F)cc2s1 [Compound 43] | C (60 ≦ C < 80%) | D (50 ≦ D < 60%) | C (60 ≦ C < 80%) | A (90 ≦ A ≦ 100%) | D (50 ≦ D < 60%) | C (60 ≦ C < 80%) | – | – | – | – | – | – |
| CCOC(=O)CSc1nc2cc(-n3nc(C(F)(F)F)n(C(F)F)c3=O)c(Br)cc2s1 [Compound 127] | D (50 ≦ D < 60%) | B (80 ≦ B < 90%) | B (80 ≦ B < 90%) | B (80 ≦ B < 90%) | C (60 ≦ C < 80%) | B (80 ≦ B < 90%) | – | – | – | – | – | – |
| Cc1nn(-c2cc3nc(SCc4ccccc4Cl)sc3cc2Cl)c(=O)n1C(F)F [Compound 3] | E (E < 50%) | C (60 ≦ C < 80%) | C (60 ≦ C < 80%) | B (80 ≦ B < 90%) | E (E < 50%) | E (E < 50%) | – | – | – | – | – | – |
| Cc1ccc(CS(=O)(=O)c2nc3cc(-n4nc(C)n(C(F)F)c4=O)c(F)cc3s2)cc1 [Compound 47] | C (60 ≦ C < 80%) | A (90 ≦ A ≦ 100%) | A (90 ≦ A ≦ 100%) | A (90 ≦ A ≦ 100%) | B (80 ≦ B < 90%) | C (60 ≦ C < 80%) | – | – | – | – | – | – |

Source: patent US7666890B2, “Synthesis and herbicidal activity of 1- (2-substituted benzo[d]thiazol-5-yl)-1H-1,2,4-triazol-5(4H)-one derivatives” (Huazhong Normal University, priority 2007, dated 2010)
